Values joined by “and” are separate entries in the source; they are usually repeats but may differ in a detail not shown here. Equal entries are not always repeated. Structures can show the parent of a compound that is named as a salt.
Legend:
[1] = test system: breast and endometrial tissues; test: Antiestrogens tested for SERM function and estrogenic activity in breast and endometrium; conditions: for Estrogenic activity in breast and endometrial tissues: physiological or pharmacological concentrations
Excerpt: As used herein, a selective estrogen receptor modulator (SERM) is a compound that either directly or through its active metabolite functions as an estrogen receptor antagonist (“antiestrogen”) in breast tissue, yet provides estrogenic or estrogen-like effect on bone tissue and on serum cholesterol levels (i.e. by reducing serum cholesterol). Non-steroidal compounds that function as estrogen receptor antagonists in vitro or in human or rat breast tissue (especially if the compound acts as an antiestrogen on human breast cancer cells) is likely to function as a SERM. Conversely, steroidal antiestrogens tend not to function as SERMs because they tend not to display any beneficial effect on serum cholesterol. […] These SERMs may be called “pure SERMs”. […] This second series of SERMs may be called “mixed SERMs”. The unwanted estrogenic activities of these “mixed SERMs”, may be inhibited by addition of pure “SERMs” as shown in FIGS. 6 and 7 in in vitro tests and in FIG. 9 in an in vivo test of breast cancer.

[2] = test system: ZR-75-1 breast tumor xenografts; test: Growth of human ZR-75-1 breast tumor xenografts in OVX nude mice supplemented with estrone (DHEA, EM-800; Example 1); conditions: OVX + E1 (0.5 μg) alone, 9.5 months
[3] = test system: ovariectomized female rats; test: Prevention of bone loss, body fat, serum cholesterol and ALP, 26-week treatment of OVX rats (Example 5A, experiment 2); assay type: in vivo, Sprague-Dawley rats; conditions: 26 weeks
Experimental: Ten to twelve week-old female Sprague-Dawley rats (Crl:CD(SD)Br) (Charles River Laboratory, St-Constant, Canada) weighing approximately 220-270 g at start of treatment were used. The animals were acclimatized to the environmental conditions (temperature: 22±3° C.; humidity: 50±20%; 12-h light-12-h dark cycles, lights on at 07:15 h) for at least 1 week before starting the experiments. The animals were housed individually and were allowed free access to tap water and a pelleted certified rodent feed (Lab Diet 5002, Ralston Purina, St-Louis, Mo.). Experiments were conducted in an animal facility approved by the Canadian Council on Animal Care (CCAC) and the Association for Assessment and Accreditation of Laboratory Animal Care (AAALAC) in accordance with the CCAC Guide for Care and Use of Experimental Animals.
On day 1 of the study, the animals of the appropriate groups were bilaterally OVX under isoflurane anesthesia. Tested compounds were administered as suspension in 0.4% methylcellulose by oral gavage. Treatments were initiated on day 2 of the study and were performed once daily during 26 weeks. In both experiments, animals not receiving a test article were treated with the appropriate vehicle alone during the same period.
After 3 months (experiment 1) or 26 weeks (experiment 2) of treatment, individual rats under Isoflurane anesthesia had their whole body skeleton and lumbar spine scanned using dual energy x-ray absorptiometry (DEXA; QDR 4500A, Hologic, Waltham, Mass.) and a Regional High Resolution Scan software. The bone mineral density (BMD) of the lumbar spine (vertebrae L2 to L4) and the total body composition (fat percentage) were determined.
After 3 months (experiment 1) or 26 weeks (experiment 2) of treatment, blood samples were collected at the jugular vein from overnight fasted animals (under Isoflurane anesthesia). Samples were processed for serum preparation and frozen at −80° C. until assay. Serum cholesterol levels and alkaline phospatase activity (ALP) were determined using the Boehringer Mannheim Diagnostic Hitachi 911 Analyzer (Boehringer Mannheim Diagnostic Laboratory Systems).

ZR-75-1 breast tumors = test: Growth and response category of human ZR-75-1 breast tumors in OVX nude mice, 7 antiestrogens, 161 days (Example 8); assay type: in vivo; conditions: 161 days
Experimental: The mice (5 per cage) were housed in vinyl cages equipped with air filter lids, which were kept in laminar airflow hoods and maintained under pathogen-limiting conditions. The photoperiod was 12 hours of light and 12 hours of darkness (lights on at 07:15). Cages, bedding and food (Agway Pro-Lab R-M-H Diet #4018) were autoclaved before use. Water was autoclaved and provided ad libitum. Bilateral ovariectomy was performed under isoflurane-induced anesthesia. […] Randomization and treatments were started one week later. […] The 17 groups included two control groups (OVX and OVX+Estrone), seven groups supplemented with an estrone implant and treated with an antiestrogen and eight other groups that received an antiestrogen alone. The estrone implants were then removed from the animals in the ovariectomized control group (OVX) and in groups that were to receive the antiestrogen alone. […] Tamoxifen was purchased from […], Israel) while toremifene citrate was purchased from Orion (Espoo, Finland). […] Animals in both control groups received 0.2 ml of the vehicle alone. The antiestrogen suspensions at the appropriate concentration were prepared each month, stored at 4° C. and used under constant agitation. Powder stock were hermetically stored at 4° C. […] Tumor response was assessed at the end of the study or at death of each animal, if it occurred during the course of the experiment. In this case, only data of mice that survived for at least half of the study (84 days) were used in the tumor response analysis.

[4] = Tissue distribution of radioactivity after a single oral dose of ^14C-EM-800; assay type: in vivo, female Long-Evans rats; conditions: for Drug-derived radioactivity, brain / Drug-derived radioactivity, blood / Drug-derived radioactivity, plasma: 20 mg/kg
Excerpt: It is important to note that some of the radioactivity detected in the brain tissue may be due to residual blood in the tissue. Additionally, the radiochemical purity of the ^14C-EM-800 used for this study was minimally 96.25%.

[5] = 200 μg daily, absence of estrone

## C[C@]12CC[C@@H]3c4ccc(O)cc4C[C@@H](CCCCCCCCC[S+]([O-])CCCC(F)(F)C(F)(F)F)[C@H]3[C@@H]1CC[C@@H]2O (stereo partly shown) [ICI 182,780]
[1]
  Function as SERM: not to function as a-SERMs

## C[C@]12CC[C@@H]3c4ccc(O)cc4CC[C@H]3[C@@H]1CCC2=O [E1, Estrone, reference compound]
[2]
  Category of response: Complete: 0 (0) Number and (%)
  Category of response: Partial: 0 (0) Number and (%)
  Category of response: Progression: 14 (87.5) Number and (%)
[2]; listed as estrone
  Category of response: Complete: 0 Number and (%)

## Oc1ccc2c(c1)CC[C@H](c1ccccc1)[C@@H]2c1ccc(OCCN2CCCC2)cc1 (racemic) [Lasofoxifene, cis-1R-[4′-pyrrolidino-ethoxyphenyl]-2S-phenyl-6-hydroxy-1,2,3,4,-tetrahydronaphthalene D-(−)-tartrate salt]
[1]
  Function as SERM: found to function as SERMs
[3]; OVX rats
  Serum cholesterol: 0.60 ± 0.02 mmol/L
[3]; alone or in combination with Premarin
  OVX-induced increase on serum cholesterol levels: completely prevented

## Cl.Oc1ccc(-c2sc3cc(O)ccc3c2Oc2ccc(OCCN3CCCCC3)cc2)cc1 [LY 335 563, 6-hydroxy-3-[4-[2-(1-piperidinyl)ethoxy]phenoxyl]-2-(4-hydroxyphenyl) benzo[b]thiopene hydrochloride]
[1]
  Function as SERM: found to function as SERMs
  Estrogenic activity in breast and endometrial tissues: have some estrogenic activities

## CCC(=C(c1ccc(O)cc1)c1ccc(OCCN(C)C)cc1)c1ccccc1 [4-hydroxy-Tamoxifen, 1-(4-dimethylaminoethoxyphenyl)-1-(4-hydroxyphenyl)-2-phenyl-but-1-ene]
[1]
  Function as SERM: found to function as SERMs
  Estrogenic activity in breast and endometrial tissues: have some estrogenic activities

## CC/C(=C(\c1ccccc1)c1ccc(OCCN(C)C)cc1)c1ccccc1 [Tamoxifen, (Z)-2-[4-(1,2-diphenyl-1-butenyl)phenoxy]-N,N-dimethylethanamine]
ZR-75-1 breast tumors; 50 μg daily + estrone
  Progressing tumors: 65%
ZR-75-1 breast tumors; [5]
  Progressing tumors: 62%
[1]
  Function as SERM: found to function as SERMs
  Estrogenic activity in breast and endometrial tissues: have some estrogenic activities

## CN(C)CCOc1ccc(/C(=C(/CCCl)c2ccccc2)c2ccc(O)cc2)cc1 [OH-Toremifene, (Z)-(2)-2-[4-(4-chloro-1-(4-hydroxyphenyl)-2-phenyl-1-butenyl)phenoxy]-N,N-dimethyletha namine]
[1]
  Function as SERM: found to function as SERMs
  Estrogenic activity in breast and endometrial tissues: have some estrogenic activities

## CC1=C(c2ccc(OC(=O)C(C)(C)C)cc2)[C@H](c2ccc(OCCN3CCCCC3)cc2)Oc2cc(OC(=O)C(C)(C)C)ccc21 [^14C-EM-800]
[4]; 2 hours
  Radioactivity in the brain lower than in liver: 412
  Radioactivity in the brain lower than in plasma: 13 times
  Radioactivity in the brain lower than in the blood: 8.4 times
  Radioactivity in the brain lower than in the uterus: 21 times
[4]; 2 hr, 20 mg/kg oral
  Drug-derived radioactivity, liver: 7.2547 μg EM-800 equiv/g tissue
  Drug-derived radioactivity, uterus: 0.3675 μg EM-800 equiv/g tissue
[4]; 4 hr, 20 mg/kg oral
  Drug-derived radioactivity, liver: 3.2201 μg EM-800 equiv/g tissue
  Drug-derived radioactivity, uterus: 0.2866 μg EM-800 equiv/g tissue
[4]; 6 hr, 20 mg/kg oral
  Drug-derived radioactivity, liver: 2.7462 μg EM-800 equiv/g tissue
  Drug-derived radioactivity, uterus: 0.2757 μg EM-800 equiv/g tissue
[4]; 8 hr, 20 mg/kg oral
  Drug-derived radioactivity, liver: 2.7748 μg EM-800 equiv/g tissue
  Drug-derived radioactivity, uterus: 0.3332 μg EM-800 equiv/g tissue
[4]; 12 hr, 20 mg/kg oral
  Drug-derived radioactivity, liver: 1.8232 μg EM-800 equiv/g tissue
  Drug-derived radioactivity, uterus: 0.2407 μg EM-800 equiv/g tissue
[4]; 24 hr, 20 mg/kg oral
  Drug-derived radioactivity, liver: 0.6391 μg EM-800 equiv/g tissue
  Drug-derived radioactivity, uterus: 0.0837 μg EM-800 equiv/g tissue
  Drug-derived radioactivity, brain: 0 ng EM-800 equiv/g tissue and 0 μg EM-800 equiv/g tissue
[4]; 36 hr, 20 mg/kg oral
  Drug-derived radioactivity, liver: 0.4034 μg EM-800 equiv/g tissue
  Drug-derived radioactivity, uterus: 0.0261 μg EM-800 equiv/g tissue
  Drug-derived radioactivity, blood: 0 ng EM-800 equiv/g tissue and 0 μg EM-800 equiv/g tissue
  Drug-derived radioactivity, brain: 0 ng EM-800 equiv/g tissue and 0 μg EM-800 equiv/g tissue
  Drug-derived radioactivity, plasma: 0 ng EM-800 equiv/g tissue and 0 μg EM-800 equiv/g tissue
[4]; 48 hr, 20 mg/kg oral
  Drug-derived radioactivity, liver: 0.2196 μg EM-800 equiv/g tissue
  Drug-derived radioactivity, uterus: 0.0238 μg EM-800 equiv/g tissue
  Drug-derived radioactivity, blood: 0 ng EM-800 equiv/g tissue and 0 μg EM-800 equiv/g tissue
  Drug-derived radioactivity, brain: 0 ng EM-800 equiv/g tissue and 0 μg EM-800 equiv/g tissue
  Drug-derived radioactivity, plasma: 0 ng EM-800 equiv/g tissue and 0 μg EM-800 equiv/g tissue
[4]; 72 hr, 20 mg/kg oral
  Drug-derived radioactivity, liver: 0.1326 μg EM-800 equiv/g tissue
  Drug-derived radioactivity, uterus: 0 μg EM-800 equiv/g tissue
  Drug-derived radioactivity, blood: 0 ng EM-800 equiv/g tissue and 0 μg EM-800 equiv/g tissue
  Drug-derived radioactivity, brain: 0 ng EM-800 equiv/g tissue and 0 μg EM-800 equiv/g tissue
  Drug-derived radioactivity, plasma: 0 ng EM-800 equiv/g tissue and 0 μg EM-800 equiv/g tissue
[4]; 96 hr, 20 mg/kg oral
  Drug-derived radioactivity, liver: 0.0944 μg EM-800 equiv/g tissue
  Drug-derived radioactivity, uterus: 0 μg EM-800 equiv/g tissue
  Drug-derived radioactivity, blood: 0 ng EM-800 equiv/g tissue and 0 μg EM-800 equiv/g tissue
  Drug-derived radioactivity, brain: 0 ng EM-800 equiv/g tissue and 0 μg EM-800 equiv/g tissue
  Drug-derived radioactivity, plasma: 0 ng EM-800 equiv/g tissue and 0 μg EM-800 equiv/g tissue
[4]; 168 hr, 20 mg/kg oral
  Drug-derived radioactivity, liver: 0.0348 μg EM-800 equiv/g tissue
  Drug-derived radioactivity, uterus: 0 μg EM-800 equiv/g tissue
  Drug-derived radioactivity, blood: 0 ng EM-800 equiv/g tissue and 0 μg EM-800 equiv/g tissue
  Drug-derived radioactivity, brain: 0 ng EM-800 equiv/g tissue and 0 μg EM-800 equiv/g tissue
  Drug-derived radioactivity, plasma: 0 ng EM-800 equiv/g tissue and 0 μg EM-800 equiv/g tissue
[4]; female Long-Evans rats, 20 mg/kg oral
  Total drug-derived radioactivity in the brain: not detected after 12 hr post dose

## Cc1c(-c2ccc(O)cc2)n(Cc2ccc(OCCN3CCCCCC3)cc2)c2ccc(O)cc12 [TSE 424]
[1]
  Function as SERM: found to function as SERMs

## CN(C)CCOc1ccc(/C(=C(/CCCl)c2ccccc2)c2ccccc2)cc1 [Toremifene, (Z)-2-[4-(4-Chloro-1,2-diphenyl-1-butenyl)phenoxy]-N,N-dimethylethanamine]
ZR-75-1 breast tumors; 50 μg daily + estrone
  Progressing tumors: 89%
ZR-75-1 breast tumors; [5]
  Increase of average tumor size over baseline: 86%
  Progressing tumors: 21%
[1]
  Function as SERM: found to function as SERMs
  Estrogenic activity in breast and endometrial tissues: have some estrogenic activities

— patent publication US20030040510A1, “Selective estrogen receptor modulators in combination with estrogens” (Endorecherche, Inc., priority 2000, published 2003)
